The record followed here is patent US10662153B2 (The University of Toledo, priority 2016, dated 2020).

For data set [1], the target named is T1, PPARα (Mus musculus, UniProt P23204).
T1 sequence (P23204 1-468): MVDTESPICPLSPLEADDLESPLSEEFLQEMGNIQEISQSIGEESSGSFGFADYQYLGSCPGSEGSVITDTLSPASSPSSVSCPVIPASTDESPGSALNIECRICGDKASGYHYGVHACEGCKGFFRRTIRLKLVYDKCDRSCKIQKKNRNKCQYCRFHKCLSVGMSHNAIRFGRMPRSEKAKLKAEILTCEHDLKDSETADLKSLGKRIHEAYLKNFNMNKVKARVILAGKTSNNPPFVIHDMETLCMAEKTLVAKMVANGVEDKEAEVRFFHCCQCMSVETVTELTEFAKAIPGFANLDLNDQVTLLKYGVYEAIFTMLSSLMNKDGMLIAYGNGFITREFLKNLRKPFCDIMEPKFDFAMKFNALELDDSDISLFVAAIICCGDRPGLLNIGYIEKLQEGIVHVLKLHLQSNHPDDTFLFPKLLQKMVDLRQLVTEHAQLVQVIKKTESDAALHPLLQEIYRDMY
The data set can be described thus: Promoter reporter assay (PPRE-3tk-luc luciferase) in Cos7 cells. To be noted: for level of PPARα activation compared among the ligands / PPARα activity at the minimal luciferase promoter: PPARα overexpressed, 50 μM each; for level of PPARα activation compared among the ligands: 24 hours (FIG. 3C); for PPARα activity at the minimal luciferase promoter: vs Veh (FIG. 3C). (In general: A reporter such as luciferase makes a cellular process visible.)
Experimental: Cos7 cells were transiently transfected with a minimal PPARα responsive promoter luciferase construct (PPRE-3tk-luc) for 24 hours along with an empty vector and a vector containing PPARα cDNA (overexpression).
The mouse 3T3-L1 preadipocyte, Hepa1c1c7, and Cos7 green kidney monkey cells were routinely cultured and maintained in Dulbecco's Modified Eagles's Medium (DMEM) containing 10% bovine calf serum or FBS with 1% penicillin-streptomycin.
A PPARα minimal promoter PPRE-3tk-luc activity was measured by luciferase, and pRL-CMV Renilla reporter for normalization to transfection efficiency. Transient transfection was achieved using GeneFect® (Alkali Scientific, Inc.). Twenty-four-hour post-transfected cells were lysed and the luciferase assay was performed using the Promega® dual luciferase assay system (Promega, Madison, Wis.).

In the next data set the test system is PPARα OE 3T3-L1 cells. The data set can be described thus: Endogenous PPARα gene regulatory activity in 3T3-L1 cells (Real-time PCR). Type of data set: cell-based, mouse. The note with it: 50 μM, 24 hours, dialyzed fatty acid-free media. The procedure: (§1) (FIG. 4D.) RNA was extracted and mRNA expression was measured by Real-time PCR.
(§2) To establish a 3T3-L1 or Hepa1c1c7 cell line that have PPARα stably overexpressed, mouse PPARα cDNA was ligated into the NotI/BamHI sites of the pQXCIP vector and transformed in DH5α cells (Invitrogen, Carlsbad, Calif.). […] The supernatants were harvested, and the cell debris was removed by centrifugation at 2000×g. The supernatant was used to infect 3T3-L1 or Hepa1c1c7 cells after addition of polybrene ([…], Sigma Chemical Co., St. Louis, Mo.) to establish cell lines with stable overexpression of a PPARα overexpressing (3T3-PPARα) or expressing empty vector (3T3-Vector). After 72 h the cells were selected with puromycin, and positive cells were confirmed by Western blotting and used for experiments.

The format of data set [2] is physicochemical. From the text:
(§3) This was to help increase the solubility of bilirubin in solution. […] Bilirubin was purchased commercially from Frontier Scientific.

In data set [3] the test system is hepa1c1c7 mouse hepatocytes overexpressing PPARα. The data set can be described thus: PPARα controlled genes in hepa1c1c7 liver cells (Real-time PCR). Type of data set: cell-based. To be noted: 50 μM, 24 hours, dialyzed fatty acid-free media. The procedure:
as §1, §2
(In general: Quantitative PCR measures a nucleic acid by following its amplification.)

The next data set concerns 3T3-L1 cells. The data set is described as follows: Adipogenesis assay (Nile Red lipid accumulation, Real-time PCR). Type of data set: cell-based, mouse.
Data set [4] addresses T1, PPARα. The data set can be described thus: Pull-down assay with ligand-coupled sepharose resins, PPARα OE 3T3-L1 cells. Type of data set: binding. On the set-up: expressed in transfected cells. To be noted: ligand coupled to sepharose beads. The procedure: The ligand coupling was performed according to the GE Healthcare instructions (71-7097-00 AE, pg. 6) for EAH Sepharose™ 4B. The procedure in the online instructions was titled “A general ligand coupling procedure”. […] Resin coupling procedures were conducted in a DMF/H2O solvent system (1:1) with a final concentration of 0.1 M EDC*HCl. […] Upon completion, resins were washed according to the GE instructions (3 alternating washings with 0.5 M NaCl containing 0.1 M sodium acetate pH 4.5 and 0.5 M NaCl containing 0.1 M Tris pH 8) over a 10-15 μm fritted filter. As an additional step to the GE instructions, matrix-coupled bilirubin and biliverdin coupled preparations were further washed with 50% DMSO/H2O solutions (250 mL) to remove any unreacted ligand. The filtrate was nearly colorless after this step. […] The resins were suspended in 20% EtOH/H2O (15 mL) and stored at 4° C. for 16 h in capped sample vials. The ligand-coupled resin settles overnight and the supernatant was carefully decanted until minimal amounts of 20% EtOH/H2O covered the resin. […]
Whole cell extracts (WCE) were prepared by freezing the cell pellet overnight at −80° C. […] Immunoreactivity was visualized and quantified by infrared scanning in the Odyssey system (LI-COR Biosciences). […]

Data set [5] deals with wild-type mice on a high fat diet. To be noted: mouse, in vivo.
Experimental: (§4) With respect to animals, the procedures and protocols conform to the National Institutes of Health Guide for the Care and Use of Laboratory Animals, and were approved by the Institutional Animal Care and Use Committee of the University of Mississippi Medical Center. Tests were performed on 16 week old male PPARα knockout and wild-type mice on a C57 genetic background purchased from Jackson Labs (Bar Harbor, Me.). […] After this time, mice were switched to a 60% high fat diet (diet # D12492, Research Diets, Inc., New Brunswick, N.J.) for an additional 6 weeks. […] Control mice were not treated. Mice were euthanized on the last day of the test, at which time all organs were collected and weighed.
(§5) Following an 8 hour fast, a blood sample was obtained via orbital sinus under isoflorane anesthesia.
(§6) Plasma samples from individual mice were measured in duplicate and then averaged. The concentrations are expressed as mg/dL Plasma alanine aminotransferase (ALT) and aspartate aminotransferase (AST) levels were determined in 50 μL of plasma by colorimetric assay (Cobas, Rochce Diagnostics, Indianapolis, Ind.). Assays were performed according to the manufacturer's guidelines and samples were read on a Roche Cobas c501 analyzer. The concentrations were expressed as units/L.
Data set [6] has as its system PPARα KO mice on a high fat diet. The note with it: mouse, in vivo.
Experimental: as §4, §5, §6
Data set [7] has the same test system. The data set is described as follows: High fat diet PPARα KO mice treated for seven days. The note with it: bilirubin 30 mg/kg or fenofibrate 90 mg/kg i.p.
Experimental: as §4, §5, §6
A short description of data set [8]: Stability on heating during resin preparation. The note with it: 75° C. for 90 min in DMF/H2O; judged by decrease in PPARα binding of resin. Type of data set: physicochemical.
Text: as §3

Where [9] appears, read: 10 μM, differentiated 3T3-L1 adipocytes.

Regarding `Cc1cccc(Nc2cc(Cl)nc(SCC(=O)O)n2)c1C` [WY 14,643], the “induction of PPARα activity” value at PPARα [1] (Cos7 cells transfected with PPARα and RXR, 50 μM, 24 hrs (FIG. 12)) is 2.1 fold. The “level of PPARα activation compared among the ligands” value at PPARα [1] (Cos7 cells) is recorded as “higher than biliverdin or fenofibrate”. In addition, on PPARα [1] (Cos7 cells, 24 hours), the “PPARα activity at the minimal luciferase promoter” value is given as “significantly (p<0.0001) increased”. Moreover, in the data set on PPARα OE 3T3-L1 cells, the “CD36 mRNA expression” value was “strongly induced expression”. Moreover, in data set [2], the “solubility in organic solvents” value is on record as “readily soluble”. For the same compound, in data set [3], the “CD36 mRNA” value is “responded”, the “CYP4A10 mRNA” value is recorded as “responded”, the “FGF21 mRNA response” value is recorded as “not” and the “Pyruvate dehydrogenase kinase 4 (PDK4) expression” value is on record as “significantly (p<0.05) higher”. Further, in data set [3], the “angiopoietin-like 4 (ANGPTL4) expression” value is listed as “significantly increased” and the “heme oxygenase-1 (HO-1) mRNA response” value is “not”. Also, the “reduction of lipid accumulation” value in the data set on 3T3-L1 cells (10 μM over the 9 day protocol) is 56%. Also, the “expression of FAS” value in the data set with 3T3-L1 cells (setting [9]) was “significantly (p<0.001) decreased expression of FAS”. In addition, the “reduction of lipid accumulation” value in the data set on 3T3-L1 cells (50 μM over the 9 day protocol) amounted to 33%. For the same compound, the “direct binding to PPARα (pull-down)” value at PPARα [4] is on record as “can directly bind”.

On to `C=CC1=C(C)/C(=C/c2[nH]c(Cc3[nH]c(/C=C4\NC(=O)C(C)=C4C=C)c(C)c3CCC(=O)O)c(CCC(=O)O)c2C)NC1=O` [bilirubin], for which the “alanine aminotransferase (ALT)” value in data set [5] is “no change”; in [6], “significantly (p<0.05) decreased”. For the same compound, the entries for the “aspartate aminotransferase (AST)” value in [5] and in data set [6] were “no change” and “significantly (p<0.05) decreased”, respectively. Besides, the “solubility in organic solvents” value in data set [2] is recorded as “limited solubility”. Also, the body weight entry in data set [7] is given as “no effect”. In addition, the stability with heating result in data set [8] is on record as “less stable with heating”.

As to `C=CC1=C(C)/C(=C/C2=NC(=C\c3[nH]c(/C=C4\NC(=O)C(C)=C4C=C)c(C)c3CCC(=O)O)/C(CCC(=O)O)=C2C)NC1=O` [biliverdin], the “level of PPARα activation compared among the ligands” value on PPARα [1] (Cos7 cells) is on record as “same level of PPARα activation”. Moreover, the “PPARα activity at the minimal luciferase promoter” value at PPARα [1] (Cos7 cells, 24 hours) is “significantly (p<0.0001) increased”. In addition, the “PPARα activity (PPRE-3tk-luc)” value at PPARα [1] (Cos7 cells, PPARα overexpression, dose dependence, 24 hours, vs 0 μM) is “significantly (p<0.05) increased”. The “PPRE-3tk-luc promoter activation in the absence of PPARα” value at PPARα [1] (Cos7 cells, empty vector, dose dependence, 24 hours) is “did not activate”. For the same compound, in the data set on PPARα OE 3T3-L1 cells, the “CD36 mRNA expression” value is reported as “significantly (p<0.05) increased CD36 mRNA expression more than fenofibrate”; the CPT1 expression entry was “increased CPT1 and FGF21 expression more than WY 14,643 treatment”; the “FGF21 mRNA expression” value was “significantly (p<0.05) enhanced FGF21 mRNA higher than fenofibrate”. Besides, in data set [2], the “solubility in organic solvents” value is “readily soluble” and the water solubility result was “greater water solubility than bilirubin”. In data set [3], the “CD36 mRNA” value was “not”, the “CYP4A10 mRNA” value is “not”, the “FGF21 mRNA response” value is “increased” and the “Pyruvate dehydrogenase kinase 4 (PDK4) expression” value is given as “increased with all the ligands”. In addition, in [3], the “angiopoietin-like 4 (ANGPTL4) expression” value was “significantly increased” and the “heme oxygenase-1 (HO-1) mRNA response” value was “increased”. Besides, the “reduction of lipid accumulation” value with 3T3-L1 cells (10 μM over the 9 day protocol) turned out to be 50%. Also, in the data set with 3T3-L1 cells (10 μM over the 9 day protocol, listed as Biliverdin), the “reduction of lipid accumulation” value is 49%. Moreover, in the data set with 3T3-L1 cells (setting [9]), the “expression of CPT1” value is “significantly (p<0.001) increased expression of CPT1” and the “expression of FAS” value was “significantly (p<0.001) decreased expression of FAS”. Besides, the “reduction of lipid accumulation” value in the data set with 3T3-L1 cells (50 μM over the 9 day protocol) came to 91%.

On to `CC(C)OC(=O)C(C)(C)Oc1ccc(C(=O)c2ccc(Cl)cc2)cc1` [fenofibrate], for which the “reduction of lipid accumulation” value in the data set with 3T3-L1 cells (10 μM over the 9 day protocol) came out at 48%; in the data set on 3T3-L1 cells (50 μM over the 9 day protocol), 51%.
